The target in the assay is fluorescein labeled GRE2 sequence dsDNA (F-GRE2). The experiment in a line: Total fluorescence quenching (energy transfer) of fluorescein labeled DNA. The class given is binding. The method, then: Fluorescence Measurements. Steady state fluorescence anisotropy measurements were carried out in 20 mM Tris (pH 7.9), 30 mM NaCl, 20 mM KCl, 1 mM MgCl2, and 5% glycerol. […] DNA samples used were either the non-labeled sequences shown in FIG. 2 or a fluorescein labeled duplex with a sequence matching GRE2 (FIG. 2).
For fluorescein labeled DNA measurements, the excitation wavelength was 491 nm and the emission was recorded at 521 nm with a 1.0 nm slit width. Titrations were performed holding the concentration of fluorescein-labeled DNA constant and increasing the concentration of TO, ZF or TO-ZF as indicated. To correct for the small amount of background fluorescence from TO in these measurements, control experiments were performed in parallel using DNA that was not fluorescein labeled, but was otherwise identical to the labeled DNA fragments. The thiazole orange fluorescence intensity measured in the control experiments was subtracted from the total fluorescence intensity for each data point. Under the excitation conditions of these measurements, the contribution to fluorescence by TO at 521 nm was less than 5% of the maximum fluorescence signal observed in the experiment. Even at the point in the titration where the maximum quenching of fluorescein fluorescence was observed (the point of lowest total fluorescence in the measurement), less than half of the fluorescence was due to TO, and this could accurately be removed by subtraction of the control value. Each point is an average of 60 measurements, and each titration was performed independently three times.
Total fluorescence data were collected in parallel to the anisotropy measurements and were calculated from raw data as the fluorescence intensity in the vertical plane plus two times the fluorescence intensity of the horizontal plane, (TF=Ivv+2Ivh). These values were used to determine the percent of the maximum fluorescence for each point along the titration and fit to equation 2. [formula] […]
Fluorescence changes upon binding of TO, ZF and TO-ZF to GRE containing duplex DNA. Equilibrium binding of the non-labeled zinc finger (ZF), unconjugated thiazole orange (TO) and thiazole orange-zinc finger conjugate (TO-ZF) to fluorescein labeled GRE2 sequence dsDNA was measured by both fluorescence anisotropy and total fluorescence. […] For fluorescein fluorescence, excitation was at 491 nm and emission was detected at 521 nm. […] Changes in the steady-state anisotropy of the fluorescein fluorescence from the labeled GRE sequence containing DNA (F-GRE2) can arise from two sources. […] By comparison, the amino acid zinc finger Xfin-31 was determined to have a dissociation constant of approximately 1 μM, M. S. Lee, et al., FEBS 279:289-294 (1991), whereas, the 66 amino acid zinc finger from GATA-1 has a dissociation constant of 10 nM. […]

Consider “TO-ZF: 29 amino acid single zinc finger from residues 438-465 of glucocorticoid receptor, thiazole orange coupled to a lysine ε-amine”, for which, for the setting “1 nM F-GRE2, read-out: dissociation constant from quenching curve, two-state binding model”, the Kd is 14 nM. Besides, the “change in total fluorescein fluorescence over the titration” value (excitation 491 nm, emission 521 nm) is “large decreases in steady state fluorescence”.

The values above are taken from US6348317B1, “Fluorescent and DNA cleavage properties of peptide/dye conjugates” (The Arizona Board of Regents, priority 1999, dated 2002).
